Where a SMILES comes first, the peptide text is derived from it. [ ]: non-standard residue; d: D form. ξ: configuration not given here. ξαMeBip(2'-Et,4'-OMe) = CCc1cc(OC)ccc1-c1ccc(CC(C)(N)C(=O)O)cc1; αMePhe(2,6-F2) = C[C@](N)(Cc1c(F)cccc1F)C(=O)O; ξαMePhe(2,6-F2) = CC(N)(Cc1c(F)cccc1F)C(=O)O; αMePhe(2-F) = C[C@](N)(Cc1ccccc1F)C(=O)O; ξαMe(hhPhe) = CC(N)(CCCc1ccccc1)C(=O)O; ξαMePhe(2-F) = CC(N)(Cc1ccccc1F)C(=O)O; hhPhe = N[C@@H](CCCc1ccccc1)C(=O)O; hArg = N=C(N)NCCCC[C@H](N)C(=O)O; hCit = NC(=O)NCCCC[C@H](N)C(=O)O; Cit = NC(=O)NCCC[C@H](N)C(=O)O; ξαMeM = CSCCC(C)(N)C(=O)O; Nle = CCCC[C@H](N)C(=O)O; ξαMeP = CC1(C(=O)O)CCCN1; Ac5c = NC1(C(=O)O)CCCC1; Aib = CC(C)(N)C(=O)O
Tests used:
Type in all cases: in vitro ADME
[1] = Stability of peptides in simulated intestinal fluid (pH 7.5); details: for half-life: simulated gi fluid
Description: (§1) b) Stability of Peptides in Human Plasma, Simulated Gastric Fluid, Intestinal Fluid and Liver Microsomes (Ex-Vivo): Different short-chain peptides (final concentration 2 μM) were incubated with either pooled human plasma (7.5 μL) or simulated gastric fluid (pH 1.5; composition HCl, NaCl and Pepsin) or simulated intestinal fluid (pH 7.5) or human liver microsomes, for 0, 2, 4, 6, 12 and 24 h (37° C.; 50 mM triethanolamine-HCl buffer; pH 7.8). Concentrations of human plasma/simulated gastric fluid/simulated intestinal fluid/human liver microsomes were selected in preliminary experiments to provide degradation of approximately 50% of PTH(1-34) within 1 h, therefore allowing time-dependent degradation to be viewed over 24 h. Reactions were terminated by the addition of TFA/H2O ([…], 10% (v/v)). The reaction products were then applied to a Vydac C18 analytical column (4.6×250-mm) and the major degradation fragment separated from intact short-chain peptides. The column was equilibrated with TFA/H20, at a flow rate of 1 mL/min. Using 0.1% (v/v) TFA in 70% acetonitrile/H2O, the concentration of acetonitrile in the eluting solvent was raised from 0% to 28% over 10 min and from 28% to 42% over 30 min. The absorbance was monitored at 206 nm using UV detector and peaks were collected manually prior to ESI-MS analysis. Area under the curve was measured for test peptides and their metabolites and percentage degradation were calculated at each time point over a period of 24 h. Stability study results of selected peptides, in human plasma, simulated gastric fluid, intestinal fluid and liver microsomes (in vitro) are listed in Table 4.

[2] = Stability of peptides in simulated gastric fluid (pH 1.5; HCl, NaCl and Pepsin); details: for half-life: simulated gi fluid
Description: as §1

[3] = Stability of peptides in human plasma
Description: as §1

[4] = Stability of peptides in human liver microsomes
Description: as §1

[5] = simulated intestinal fluid, 2 μM, pH 7.5
[6] = simulated gastric fluid, 2 μM, pH 1.5
[7] = human, microsomes, 2 μM, pH 7.8

SMILES	half-life ([1]; pH 7.5) [h]	% degradation of peptides in 24 h when incubated with simulated intestinal fluid [1, 5] [%]	% degradation of peptides in 24 h when incubated with simulated gastric fluid [2, 6] [%]	half-life ([2]; pH 1.5) [h]	half-life ([3]; human, plasma) [h]	metabolised at 24 h, 2 μM ([3]; human, plasma, pH 7.8) [%]	% degradation of peptides in 24 h when incubated with liver microsomes [4, 7] [%]	half-life ([4]; human, microsomes) [h]	other results
CCc1cc(OC)ccc1-c1ccc(CC(C)(NC(=O)[C@H](CCCCN)NC(=O)[C@H](C)NC(=O)[C@H](CCCCNC(=N)N)NC(=O)[C@H](CCC(N)=O)NC(=O)[C@H](Cc2c[nH]cn2)NC(=O)[C@H](CCSC)NC(=O)[C@H](CC(C)C)NC(=O)[C@H](CCC(N)=O)NC(=O)[C@@H](NC(=O)[C@H](CCC(=O)O)NC(=O)C(C)(C)NC(=O)[C@@H](NC(=O)C(C)(C)N)C(C)C)[C@@H](C)CC)C(=O)N[C@@H](CCCc2ccccc2)C(N)=O)cc1 (stereo partly drawn) [Seq. ID. 890] (H-[Aib]V[Aib]EIQLMHQ[hArg]AK[ξαMeBip(2'-Et,4'-OMe)][hhPhe]-NH2)	> 24	00	00	> 24	> 24	0	32		half-life (t1/2) in liver microsomes ([4]; human, microsomes): (5) h
CCCC[C@H](NC(=O)C(C)(Cc1c(F)cccc1F)NC(=O)[C@H](CCC(N)=O)NC(=O)[C@@H](NC(=O)[C@H](CCC(=O)O)NC(=O)C(C)(C)NC(=O)[C@@H](NC(=O)C(C)(C)N)C(C)C)[C@@H](C)CC)C(=O)N[C@@H](Cc1c[nH]cn1)C(=O)N[C@@H](CCC(N)=O)C(=O)N[C@@H](CCCCNC(N)=O)C(=O)NC(C)(C)C(=O)NC(C)(C)C(=O)NC(C)(Cc1ccccc1F)C(N)=O (stereo partly drawn) [Seq. ID. 430] (H-[Aib]V[Aib]EIQ[ξαMePhe(2,6-F2)][Nle]HQ[hCit][Aib][Aib][ξαMePhe(2-F)]-NH2)	> 24	00	45	4	> 24	0	85	2	
CC[C@H](C)[C@H](NC(=O)[C@H](CCC(=O)O)NC(=O)[C@H](CO)NC(=O)[C@@H](NC(=O)[C@@H](N)CO)C(C)C)C(=O)N[C@@H](CCC(N)=O)C(=O)N[C@@H](CC(C)C)C(=O)N[C@@H](CCSC)C(=O)N[C@@H](Cc1cnc[nH]1)C(=O)N[C@@H](CC(N)=O)C(=O)N[C@@H](CC(C)C)C(=O)NCC(=O)N[C@@H](CCCCN)C(=O)N[C@@H](Cc1cnc[nH]1)C(=O)N[C@@H](CC(C)C)C(=O)N[C@@H](CC(N)=O)C(=O)N[C@@H](CO)C(=O)N[C@@H](CCSC)C(=O)N[C@@H](CCC(=O)O)C(=O)N[C@@H](CCCN=C(N)N)C(=O)N[C@H](C(=O)N[C@@H](CCC(=O)O)C(=O)N[C@@H](Cc1c[nH]c2ccccc12)C(=O)N[C@@H](CC(C)C)C(=O)N[C@@H](CCCN=C(N)N)C(=O)N[C@@H](CCCCN)C(=O)N[C@@H](CCCCN)C(=O)N[C@@H](CC(C)C)C(=O)N[C@@H](CCC(N)=O)C(=O)N[C@@H](CC(=O)O)C(=O)N[C@H](C(=O)N[C@@H](Cc1cnc[nH]1)C(=O)N[C@@H](CC(N)=O)C(=O)N[C@@H](Cc1ccccc1)C(=O)O)C(C)C)C(C)C [PTH(1-34), reference compound]									% degradation of peptides in 24 h when incubated with simulated intestinal fluid ([1]; simulated intestinal fluid pH 7.5, 37° C., peptide 2 μM): 100%; metabolised at 1 h ([1]; pH 7.5, simulated intestinal fluid, within 1 h, 37° C., preliminary experiments, read-out: degradation): ~50%; half-life ([1]; simulated intestinal fluid pH 7.5, 37° C., peptide 2 μM, read-out: half-life (t1/2) in simulated intestinal fluid): 0.2 h; % degradation of peptides in 24 h when incubated with simulated gastric fluid ([2]; simulated gastric fluid pH 1.5, 37° C., peptide 2 μM): 100%; metabolised at 1 h ([2]; pH 1.5, simulated gastric fluid, within 1 h, 37° C., preliminary experiments, read-out: degradation): ~50%; half-life ([2]; simulated gastric fluid pH 1.5, 37° C., peptide 2 μM, read-out: half-life (t1/2) in simulated gastric fluid): 0.1 h; % degradation of peptides in 24 h when incubated with human plasma ([3]; 24 h, human plasma, 37° C., peptide 2 μM): 97%; half-life ([3]; human plasma, 37° C., peptide 2 μM, read-out: half-life (t1/2) in human plasma): 0.5 h; metabolised at 1 h ([3]; pH 7.8, human plasma, within 1 h, 37° C., preliminary experiments, read-out: degradation): ~50%; % degradation of peptides in 24 h when incubated with liver microsomes ([4]; human liver microsomes, 37° C., peptide 2 μM): 100%; half-life ([4]; human liver microsomes, 37° C., peptide 2 μM, read-out: half-life (t1/2) in liver microsomes): 0.1 h; metabolised at 1 h ([4]; pH 7.8, human liver microsomes, within 1 h, 37° C., preliminary experiments, read-out: degradation): ~50%
CCCC[C@H](NC(=O)[C@](C)(Cc1c(F)cccc1F)NC(=O)[C@H](CCC(N)=O)NC(=O)[C@@H](NC(=O)[C@H](CCC(=O)O)NC(=O)C(C)(C)NC(=O)[C@@H](NC(=O)C1(N)CCCC1)C(C)C)[C@@H](C)CC)C(=O)N[C@@H](Cc1c[nH]cn1)C(=O)N[C@@H](CCC(N)=O)C(=O)N[C@@H](CCCCNC(=N)N)C(=O)NC(C)(C)C(=O)N[C@@H](CCCCN)C(=O)N[C@@](C)(Cc1ccccc1F)C(N)=O [Seq. ID. 85] (H-[Ac5c]V[Aib]EIQ[αMePhe(2,6-F2)][Nle]HQ[hArg][Aib]K[αMePhe(2-F)]-NH2)	0.5	100	100	0.5		77	100	0.5	half-life (t1/2) in human plasma ([3]; human, plasma): (9) h
CCCC[C@H](NC(=O)C(C)(Cc1ccccc1F)NC(=O)[C@H](CCC(N)=O)NC(=O)[C@@H](NC(=O)[C@H](CCC(=O)O)NC(=O)C(C)(C)NC(=O)[C@@H](NC(=O)C(C)(C)N)C(C)C)[C@@H](C)CC)C(=O)N[C@@H](Cc1c[nH]cn1)C(=O)N[C@@H](CCC(N)=O)C(=O)N[C@@H](CCCCNC(=N)N)C(=O)N1CCCC1(C)C(=O)N[C@@H](CCCCN)C(=O)NC(C)(Cc1ccccc1F)C(N)=O (stereo partly drawn) [Seq. ID. 56] (H-[Aib]V[Aib]EIQ[ξαMePhe(2-F)][Nle]HQ[hArg][ξαMeP]K[ξαMePhe(2-F)]-NH2)	> 24	00	00	> 24	> 24	0	32		half-life (t1/2) in liver microsomes ([4]; human, microsomes): (5) h
CC[C@H](C)[C@H](NC(=O)[C@H](CCC(=O)O)NC(=O)C(C)(C)NC(=O)[C@@H](NC(=O)C1(NC(=O)[C@@H](N)C(C)C)CCCC1)C(C)C)C(=O)N[C@@H](CCC(N)=O)C(=O)N[C@@H](CC(C)C)C(=O)NC(C)(CCSC)C(=O)N[C@@H](Cc1c[nH]cn1)C(=O)N[C@@H](CCC(N)=O)C(=O)N[C@@H](CCCCNC(=N)N)C(=O)N[C@@H](C)C(=O)N[C@@H](CCCCNC(=N)N)C(=O)NC(C)(Cc1ccccc1F)C(=O)NC(C)(CCCc1ccccc1)C(N)=O (stereo partly drawn) [Seq. ID. 936] (H-V[Ac5c]V[Aib]EIQL[ξαMeM]HQ[hArg]A[hArg][ξαMePhe(2-F)][ξαMe(hhPhe)]-NH2)	> 24	00	52	4	> 24	0	81	2	
CCCC[C@H](NC(=O)C(C)(Cc1ccccc1F)NC(=O)[C@H](CCC(N)=O)NC(=O)[C@@H](NC(=O)[C@H](CCC(=O)O)NC(=O)C(C)(C)NC(=O)[C@@H](NC(=O)C1(N)CCCC1)C(C)C)[C@@H](C)CC)C(=O)N[C@@H](Cc1c[nH]cn1)C(=O)N[C@@H](CCC(N)=O)C(=O)N[C@@H](CCCNC(N)=O)C(=O)NC(C)(C)C(=O)NC(C)(Cc1c(F)cccc1F)C(=O)NC(C)(Cc1ccccc1F)C(N)=O (stereo partly drawn) [Seq. ID. 380] (H-[Ac5c]V[Aib]EIQ[ξαMePhe(2-F)][Nle]HQ[Cit][Aib][ξαMePhe(2,6-F2)][ξαMePhe(2-F)]-NH2)	> 24	00	50	4	> 24	0	86	2	
